Test results published in patent US9115380B2, “Kits and methods for generating 5′ capped RNA” (priority 2006, dated 2015).
“And” between values parts separate entries of the source, which are not always exact repeats. Equal values may be shown once. “Also recorded” adds a separate entry of the source. Read-outs that look alike come from different tables or passages of the source.

Tests used:
[1] = molecular target: vaccinia capping enzyme (Vaccinia virus, UniProt P04298); format: biochemical
[2] = tested on: wheat germ lysate; format: biochemical
[3] = molecular target: vaccinia mRNA (nucleoside-2′-O—) methyltransferase (Vaccinia virus, UniProt P07617); format: biochemical
[4] = tested on: tobacco acid pyrophosphatase (TAP); format: biochemical
[5] = tested on: rabbit reticulocyte lysate; format: biochemical
[6] = tested on: BDCM cells; format: cell-based; details: for relative translation efficiency: poly(A)-tailed Renilla luciferase RNA
[7] = molecular target: RNA guanyltransferase activity of the vaccinia capping enzyme system (Vaccinia virus, UniProt P04298); details: cited from earlier work
[8] = tested on: HeLa cells; format: cell-based; details: GTP-capped poly(A)-tailed Renilla luciferase RNA
[9] = molecular target: vaccinia capping enzyme (guanine 7-methyltransferase activity) (Vaccinia virus, UniProt P04298); format: biochemical
[10] = wheat germ lysate, poly(A)-tailed Renilla luciferase RNA, cap 0 structure, GTP-capped cap 0 RNA = 100%
[11] = wheat germ lysate, poly(A)-tailed Renilla luciferase RNA, cap I structure
[12] = rabbit reticulocyte lysate, poly(A)-tailed Renilla luciferase RNA, cap 0 structure, GTP-capped cap 0 RNA = 100%
[13] = rabbit reticulocyte lysate, poly(A)-tailed Renilla luciferase RNA, cap I structure
[14] = rabbit reticulocyte lysate, poly(A)-tailed firefly luciferase RNA, cap I structure
[15] = cap 0 structure, GTP-capped cap 0 RNA = 100%
[16] = cap I structure, GTP-capped RNA = 100%
[17] = capped RNA prepared per Method 6

Nc1nc2c(ncn2[C@H]2CC[C@@H](COP(=O)(O)OP(=O)(O)OP(=O)(O)O)O2)c(=O)[nH]1 [2′,3′-ddGTP, 2′,3′-dideoxy-GTP, reference compound]
substrate for the capping enzyme system (51-base primary RNA transcript converted into 52-base capped RNA) [1]: not substrates for the capping enzyme system; also recorded: not a substrate for the capping enzyme system

Nc1nc2c(ncn2[C@@H]2O[C@H](COP(=O)(O)OP(=O)(O)OP(=O)(O)O)[C@@H](O)[C@H]2F)c(=O)[nH]1 [2′-F-dGTP, 2′-fluoro-2′-deoxyguanosine-5′-triphosphate]
relative translation efficiency [2, 10]: 53% | relative translation efficiency [2, 11]: 61% | methylation of the 2′-hydroxyl of the 5′-penultimate nucleotide by mRNA (nucleoside-2′-O—) methyltransferase [3]: 52-base radioactive band was observed | removal of the cap nucleotide by tobacco acid pyrophosphatase (51-base band on PAGE) ([4]; capped RNA prepared per Method 6 except in the absence of S-adenosyl-L-methionine): 51-base band was observed | average relative translation efficiency [5, 12]: 55% | average relative translation efficiency [5, 13]: 107% | average relative translation efficiency [5, 14]: 133%

CO[C@@H]1[C@H](O)[C@@H](COP(=O)(O)OP(=O)(O)OP(=O)(O)O)O[C@H]1n1cnc2c(=O)[nH]c(N)nc21 [2′-OMe-GTP, 2′-O-methylguanosine-5′-triphosphate]
relative translation efficiency [2]: 36% and 47% | methylation of the 2′-hydroxyl of the 5′-penultimate nucleotide by mRNA (nucleoside-2′-O—) methyltransferase [3]: 52-base radioactive band was observed | removal of the cap nucleotide by tobacco acid pyrophosphatase (51-base band on PAGE) [4]: 51-base band was observed | average relative translation efficiency [5]: 132% and 97% and 170%

Nc1nc2c(ncn2[C@@H]2O[C@H](COP(=O)(O)OP(=O)(O)OP(=O)(O)O)[C@@H](O)[C@H]2N)c(=O)[nH]1 [2′-amino-dGTP, 2′-amino-2′-deoxyguanosine-5′-triphosphate]
relative translation efficiency [6, 15]: 150% | relative translation efficiency [6, 16]: 177% | conversion of 51-base primary RNA transcript to 52-base capped RNA (in words) [1]: quantitatively converted | relative translation efficiency [2, 10]: 90% | relative translation efficiency [2, 11]: 110% | methylation of the 2′-hydroxyl of the 5′-penultimate nucleotide by mRNA (nucleoside-2′-O—) methyltransferase [3]: 52-base radioactive band was observed | removal of the cap nucleotide by tobacco acid pyrophosphatase (51-base band on PAGE) [4, 17]: 51-base band was observed | average relative translation efficiency [5, 12]: 148% | average relative translation efficiency [5, 13]: 144% | average relative translation efficiency [5, 14]: 100%

[N-]=[N+]=N[C@@H]1[C@H](O)[C@@H](COP(=O)(O)OP(=O)(O)OP(=O)(O)O)O[C@H]1n1cnc2c(=O)[nH]c(N)nc21 [2′-azido-dGTP, 2′-azido-2′-deoxyguanosine-5′-triphosphate]
relative translation efficiency [2, 10]: 41% | relative translation efficiency [2, 11]: 42% | methylation of the 2′-hydroxyl of the 5′-penultimate nucleotide by mRNA (nucleoside-2′-O—) methyltransferase [3]: 52-base radioactive band was observed | average relative translation efficiency [5, 12]: 99% | average relative translation efficiency [5, 13]: 79% | average relative translation efficiency [5, 14]: 107%

CO[C@H]1[C@@H](O)[C@H](n2cnc3c(=O)[nH]c(N)nc32)O[C@@H]1COP(=O)(O)OP(=O)(O)OP(=O)(O)O [3′-OMe-GTP, 3′-O-methylguanosine-5′-triphosphate]
conversion of 51-base primary RNA transcript to 52-base capped RNA (in words) [1]: quantitatively converted | relative translation efficiency [2, 10]: 39% | relative translation efficiency [2, 11]: 43% | methylation of the 2′-hydroxyl of the 5′-penultimate nucleotide by mRNA (nucleoside-2′-O—) methyltransferase [3]: 52-base radioactive band was observed | removal of the cap nucleotide by tobacco acid pyrophosphatase (51-base band on PAGE) [4, 17]: 51-base band was observed | average relative translation efficiency [5, 12]: 82% | average relative translation efficiency [5, 13]: 84% | average relative translation efficiency [5, 14]: 137%

Nc1nc2c(ncn2[C@H]2C[C@H](N)[C@@H](COP(=O)(O)OP(=O)(O)OP(=O)(O)O)O2)c(=O)[nH]1 [3′-amino-2′,3′-ddGTP, 3′-amino-2′,3′-dideoxyguanosine-5′-triphosphate]
substrate for the capping enzyme system (51-base primary RNA transcript converted into 52-base capped RNA) [1]: substrates for the capping enzyme system

[N-]=[N+]=N[C@H]1C[C@H](n2cnc3c(=O)[nH]c(N)nc32)O[C@@H]1COP(=O)(O)OP(=O)(O)OP(=O)(O)O [3′-azido-2′,3′-ddGTP, 3′-azido-2′,3′-dideoxyguanosine-5′-triphosphate]
substrate for the capping enzyme system (51-base primary RNA transcript converted into 52-base capped RNA) [1]: substrates for the capping enzyme system

Nc1nc2c(ncn2[C@@H]2O[C@H](COP(=O)(O)OP(=O)(O)OP(=O)(O)O)C[C@H]2O)c(=O)[nH]1 [3′-dGTP, 3′-deoxyguanosine-5′-triphosphate]
relative translation efficiency [2, 11]: 31% | average relative translation efficiency [5, 12]: 80% | average relative translation efficiency [5, 13]: 64% | average relative translation efficiency [5, 14]: 98%

Nc1nc2c(ccn2[C@@H]2O[C@H](COP(=O)(O)OP(=O)(O)OP(=O)(O)O)[C@@H](O)[C@H]2O)c(=O)[nH]1 [7-deaza-GTP, reference compound]
substrate for the capping enzyme system (51-base primary RNA transcript converted into 52-base capped RNA) [1]: not substrates for the capping enzyme system

Nc1ncnc2c1ncn2[C@@H]1O[C@H](COP(=O)(O)OP(=O)(O)OP(=O)(O)O)[C@@H](O)[C@H]1O [ATP, reference compound]
substrate for the capping enzyme system (51-base primary RNA transcript converted into 52-base capped RNA) [1]: not substrates for the capping enzyme system | use in place of GTP in an in vitro capping reaction [7]: could not be used in place of GTP

Nc1ccn([C@@H]2O[C@H](COP(=O)(O)OP(=O)(O)OP(=O)(O)O)[C@@H](O)[C@H]2O)c(=O)n1 [CTP]
use in place of GTP in an in vitro capping reaction [7]: could not be used in place of GTP

Nc1nc2c(ncn2[C@@H]2O[C@H](COP(=O)(O)OP(=O)(O)O)[C@@H](O)[C@H]2O)c(=O)[nH]1 [GDP]
use in place of GTP in an in vitro capping reaction [7]: could not be used in place of GTP

Nc1nc2c(ncn2[C@@H]2O[C@H](COP(=O)(O)O)[C@@H](O)[C@H]2O)c(=O)[nH]1 [GMP]
use in place of GTP in an in vitro capping reaction [7]: could not be used in place of GTP

Nc1nc2c(ncn2[C@@H]2O[C@H](COP(=O)(O)OP(=O)(O)OP(=O)(O)O)[C@@H](O)[C@H]2O)c(=O)[nH]1 [GTP, reference compound]
RLUs with cap I structure relative to cap 0 structure ([6]; GTP-capped poly(A)-tailed Renilla luciferase RNA): about 1.3 times higher | RLUs with cap I structure relative to cap 0 structure [8]: about 2.2 times higher | conversion of 51-base primary RNA transcript to 52-base capped RNA (in words) [1]: quantitatively converted | conversion of 51-base primary RNA transcript into 52-base capped RNA (in words) [9]: quantitatively converted | methylation of the N^7 position of the cap nucleotide (radioactive methyl group in 52-base band) [9]: contained the radioactive methyl group

O=c1[nH]cnc2c1ncn2[C@@H]1O[C@H](COP(=O)(O)OP(=O)(O)OP(=O)(O)O)[C@@H](O)[C@H]1O [ITP]
use in place of GTP in an in vitro capping reaction [7]: could not be used in place of GTP

Cn1c(N)nc2c(ncn2[C@@H]2O[C@H](COP(=O)(O)OP(=O)(O)OP(=O)(O)O)[C@@H](O)[C@H]2O)c1=O [N^1-methyl-GTP, N^1-methylguanosine-5′-triphosphate]
conversion of 51-base primary RNA transcript to 52-base capped RNA (in words) [1]: quantitatively converted | substrate for the capping enzyme system (51-base primary RNA transcript converted into 52-base capped RNA) [1]: substrates for the capping enzyme system | relative translation efficiency [2]: 31% | methylation of the N^7 position of the cap nucleotide (radioactive methyl group in 52-base band) [9]: did not contain any radioactivity

Cn1c[n+]([C@@H]2O[C@H](COP(=O)(O)OP(=O)([O-])OP(=O)(O)O)[C@@H](O)[C@H]2O)c2nc(N)[nH]c(=O)c21 [N^7-methyl-GTP, reference compound]
substrate for the capping enzyme system (51-base primary RNA transcript converted into 52-base capped RNA) [1]: not substrates for the capping enzyme system | use in place of GTP in an in vitro capping reaction [7]: could not be used in place of GTP

COc1nc(N)nc2c1ncn2[C@@H]1O[C@H](COP(=O)(O)OP(=O)(O)OP(=O)(O)O)[C@@H](O)[C@H]1O [O^6-methyl-GTP, O^6-methylguanosine-5′-triphosphate]
relative translation efficiency [6, 15]: 115% | relative translation efficiency [6, 16]: 117% | 51-base primary RNA transcript converted into 52-base capped RNA [1]: approximately 70% | substrate for the capping enzyme system (51-base primary RNA transcript converted into 52-base capped RNA) [1]: substrates for the capping enzyme system | relative translation efficiency [2, 10]: 80% | relative translation efficiency [2, 11]: 59% | conversion of 51-base primary RNA transcript into 52-base capped RNA (in words) [9]: quantitatively converted | methylation of the N^7 position of the cap nucleotide (radioactive methyl group in 52-base band) [9]: catalyzed formation of N^7-methylated capped RNA | average relative translation efficiency [5, 12]: 167% | average relative translation efficiency [5, 13]: 122% | average relative translation efficiency [5, 14]: 97%

O=c1ccn([C@@H]2O[C@H](COP(=O)(O)OP(=O)(O)OP(=O)(O)O)[C@@H](O)[C@H]2O)c(=O)[nH]1 [UTP]
use in place of GTP in an in vitro capping reaction [7]: could not be used in place of GTP

CO[C@H]1[C@@H](O)[C@H]([n+]2cn(C)c3c(=O)[nH]c(N)nc32)O[C@@H]1COP(=O)([O-])OP(=O)(O)OP(=O)(O)OC[C@H]1O[C@@H](n2cnc3c(=O)[nH]c(N)nc32)[C@H](O)[C@@H]1O [m2^7,3′-OGpppG, reference compound]
relative translation efficiency [6, 15]: 130% | relative translation efficiency [6, 16]: 102%
